In patent publication EP1153612A1, “ANTICANCER AGENT POTENTIATORS” (Tsuruo, Takashi, priority 1999, dated 2000):
Where a SMILES comes first, the peptide text is derived from it. [ ]: non-standard residue; d: D form. The star is where a group is joined. Nva = CCC[C@H](N)C(=O)O; Cbz = O=C(OCc1ccccc1)*; OtBu = CC(C)(C)O*

How the values were obtained:
[1] = test system: human colon adenocarcinoma cell HT-29; assay: Sensitivity of cells to anticancer drug by colony formation method (M phase-synchronized cells, with or without proteasome inhibiting agent); assay type: cell-based; settings: for effect of each inhibiting agent on etoposide sensitivity: etoposide 10 µg/ml, MG132, MG115 2.5 µM, E64, ZLLal 25 µM, FIG. 2; for change of cell-killing effect of camptothecin: PSI, MG132 2.5 µM 13 hours, camptothecin 4 hours, FIGS. 15 and 16
Experimental: In the glucose starvation environment found in the solid cancer, the effect of combined use of the proteasome inhibitor in a human colon adenocarcinoma cell HT-29 with the anticancer drug targeting topoisomerase II was tested.
Concerning culture media, for a culture condition in a normal state, RPMI 1640 medium (Nissui Pharmaceutical Co.-made) to which a 5% FBS (fetal bovine serum) was added and for the culture condition in the glucose starvation state symbolically found in the solid cancer, RPMI 1640 medium (Lifetech Oriental-made), lacking glucose, in which the 5% FBS was added were used, respectively. Culture was carried out using a CO2 incubator (Tabai Espec-made) under conditions of 5% CO2/95% air and humidity 100%.
In order to test sensitivity to the anticancer drug, the cell cycle synchronization culture methodwas employed. Nocodazol (Sigma made) was used to synchronize the cell cycle, cells in a logarithmic proliferation phase were treated with 40 ng/ml Nocodazol for 9 hours, and cells accumulated in cell division phase (Mpahse) were collected by gentle pipetting. M phase-synchronized cells collected through these steps were washed with PBS (phosphate buffered saline) followed by inoculation of 1×10^5 cells per well of 12 well-culture plate.
M phase-synchronized cells were cultured under the normal condition and the glucose starvation condition to conduct treatments with the proteasome inhibiting agent and the anticancer drug as follows. For cells under the glucose starvation condition, the culture medium, to which the proteasome inhibiting agent and the protease inhibiting agent not inhibiting proteasome were added as the control group, and the culture medium, to which no inhibiting agent has been added, was used. For cells under the normal condition, the culture medium, to which each inhibiting agent was not added, was used. After inoculation of cells, culture was carried out for 13 hours in each culture medium. […]
Sensitivity of cells to the anticancer drug was measured using the colony formation method. As described above, cells treated with the proteasome inhibiting agent and the anticancer drug were washed with PBS followed by soaking in trypsin (Lifetech Oriental made) solution and removed from a culture dish to suspend in an ordinary culture medium. These cells were inoculated again in 500 to 5000 cells for a 10 cm culture dish and cultured for 10 to 12 days to form a colony. The colony formed was fixed by 10% formaldehyde solution and stainedwith 0.01% crystal violet (Wako Pure Chemicals made) solution. Number of colony was counted and a Cell survival rate was calculated assuming that the number of colonies untreated with the anticancer drug is 1.
For reference, the proteasome inhibiting agent and the protease inhibiting agent not inhibiting proteasome used as described above were as follows. • (1) Proteasome inhibiting agent • . […] MG115 (carbobenzoxy-L-Leucyl-L-Leucyl-L-Norvalinal): final concentration 2.5 µM (Peptide Institute Inc. made) • . MG132 (carbobenzoxy-L-Leucyl-L-Leucyl-Leucinal) : final concentration 2.5 µM (Peptide Institute Inc. made) • . Lactacystin, final concentration 10 µM (Kindly supplied from The Kitasato Institute made) • (2) Protease inhibiting agent not inhibiting proteasome • . E64, final concentration 25 µM (Peptide Institute Inc. made) • . ZLLal (carbobenzoxy-L-Leucyl-L-Leucinal): final concentration 25 µM (Peptide Institute Inc. made)
The cell culture condition for both M phase-synchronized culture method and culture under the glucose starvation condition was as described in Example 1. M phase-synchronized cells were cultured in the culture medium, to which lactacystin of the final concentration 10 µM was added, or the culture medium, to which this was not added, as the proteasome inhibiting agent under the ordinary condition and the glucose starvation condition, respectively, for 13 hours. […]

topoisomerase IIα = assay: Amount of expression of topoisomerase IIα in whole cell extract by western blotting; assay type: cell-based, human
Description: Topoisomerase II inhibiting anticancer drug stabilizes a complex (cleavable complex) consisting of the DNA and topoisomerase IIα occurring in a catalytic reaction process of topoisomerase IIα to cause DNA damage. Therefore, cell-killing effect of the topoisomerase II-inhibiting anticancer drug depends on the amount of intracellular expression of topoisomerase IIα essential for formation of the cleavable complex. Then, the amount of expression of topoisomerase IIα in the cultured cancer cell under the glucose starvation and hypoxia environment that are found in the solid cancer and the effect of the proteasome inhibiting agent to the amount of expression were examined.
The culture condition of cells is same as that described in Example 1 including the M phase synchronous culture method and culture under the glucose starvation condition. Culture under hypoxia condition, that is found in the solid cancer, similar to glucose starvation was carried out using the culture medium (that prepared by adding 5% FBS to RPMI1640 culture medium) under the ordinary condition in a Gaspack 100 anaerobic system (Becton Dickinson made). Culture under the glucose starvation condition and hypoxia condition was carried out for 14 hours .
With the purpose to prepare a whole cell extract solution, cells culture under the above described condition were washed with an ice-cooled PBS twice and then, cells were removed from the culture dish by using a cell scraper (Sumitomo Bakelite made) for collection. Cells collected were precipitated by centrifugation and then, dissolved in an SDS sample buffer to collect as the extract solution from all cells. For reference, the composition of the SDS sample buffer was 10% v/v, glycerol, 5% 2-mercaptoethanol, 2% SDS (sodium lauryl sulfate), and 62.5 mM tris-hydrochloric acid (pH 6.8).
The amount of topoisomerase IIα in the extract solution from all cells was measured by the western blotting method. The extract solution from all cells containing a total protein quantity of 30 µg was put on an SDS polyacrylamide gel (4-20 Multigel: Daiichi Pure Chemicals K.K. made) and subjected to electrophoresis in an electrophoresis buffer (25 mM tris, 192 mM glycine, and 0.1% SDS) in a 40 mA constant current for 1 hour. Subsequently, blotting was carried out in 4°C blotting buffer (25 mM tris, 192 mM glycine, and 20% methanol) in a 50 V constant voltage for 12 hours to transfer a protein separated in the SDS polyacrylamide gel to a nitrocellulose membrane. This nitrocellulose membrane was soaked in a blocking buffer (0.1% Tween 20, 4% skim milk-added PBS) for 1 hour to carry out blocking. The nitrocellulose membrane blocked was soaked in a solution, that was prepared by adding anti-topoisomerase IIα antibody (Cambridge Research Biochemicals Corp. made) of the final concentration 1 µg/ml as the primary antibody to the blocking buffer solution, for 1 hour. The nitrocellulose membrane was washed with the blocking buffer three times (5 minutes once), and then, soaked in the solution, in which a 1/1000 volume of an antimouse antibody (Amersham Pharmacia Biotech made) labeled with horse radish peroxidase as a secondary antibody had been added to the blocking buffer, for 1 hour. The nitrocellulose membrane was washed with the blocking buffer three times (5 minutes once), and then, washed with the PBS, to which 0.1% Tween 20 was added, three times (5 minutes once). The nitrocellulose membrane after completion of antibody reaction and washing was treated with the ECL reagent (Amersham Pharmacia Biotech made) after a handling manual and a topoisomerase IIα-specific signal was detected on an X-OMAT™AR film (Kodakmade). For reference, steps after blotting was carried out in a room temperature. […]
The cell culture condition for both M phase-synchronized culture method and culture under the glucose starvation condition was as described in Example 1. […]

[2] = glucose starvation condition 14 hours, PSI, MG115, MG132 5 µM, lactacystin 10 µM, E64, ZLLal 50 µM, FIG. 5(a)-(c)
[3] = glucose starvation condition, final concentration of 2.5 µM, not presented as data

## CC(C)C[C@H](NC(=O)[C@H]1O[C@@H]1C(=O)O)C(=O)NCCCCNC(=N)N [E64]
[1]; glucose starvation condition
  effect of each inhibiting agent on etoposide sensitivity: seldom change sensitivity to etoposide
Topoisomerase IIα; [2]
  expressed amount of topoisomerase IIα: the expressed amount of topoisomerase IIα very dropped

## CCC[C@@H](C=O)NC(=O)[C@H](CC(C)C)NC(=O)[C@H](CC(C)C)NC(=O)OCc1ccccc1 [MG115, carbobenzoxy-L-Leucyl-L-Leucyl-L-Norvalinal] (Cbz-Leu-Leu-[Nva]-aldehyde)
[1]; glucose starvation condition
  effect of each inhibiting agent on etoposide sensitivity: enhance sensitivity of cells to etoposide
Topoisomerase IIα; [2]
  expressed amount of topoisomerase IIα: the expressed amount of topoisomerase IIα does not drop
Topoisomerase IIα; [3]
  expressed amount of topoisomerase IIα: inhibited similarly decrease in expression of topoisomerase IIα

## CC(C)C[C@@H](C=O)NC(=O)[C@H](CC(C)C)NC(=O)[C@H](CC(C)C)NC(=O)OCc1ccccc1 [MG132, carbobenzoxy-L-Leucyl-L-Leucyl-Leucinal] (Cbz-Leu-Leu-Leu-aldehyde)
[1]; glucose starvation condition
  change of cell-killing effect of camptothecin: also enhance the effect of camptothecin
  effect of each inhibiting agent on etoposide sensitivity: enhance sensitivity of cells to etoposide
Topoisomerase IIα; [2]
  expressed amount of topoisomerase IIα: the expressed amount of topoisomerase IIα does not drop
Topoisomerase IIα; [3]
  expressed amount of topoisomerase IIα: inhibited similarly decrease in expression of topoisomerase IIα

## CC[C@H](C)[C@H](NC(=O)OCc1ccccc1)C(=O)N[C@@H](CCC(=O)OC(C)(C)C)C(=O)N[C@@H](C)C(=O)N[C@H](C=O)CC(C)C [PSI, carbobenzoxy-L-Isoleucyl-γ-t-Butyl-L-Glutamyl-L-Alany 1-L-Leucinal] (Cbz-IE(OtBu)AL-aldehyde)
[1]; glucose starvation condition, PSI 2.5 µM, 13 hours, then etoposide 1 hour, FIG. 1
  sensitivity to etoposide of cancer cells, effect of inhibiting agent: cells show sensitivity to etoposide even in the glucose starvation condition
[1]; glucose starvation condition
  change of cell-killing effect of camptothecin: also enhance the effect of camptothecin
Topoisomerase IIα; [2]
  expressed amount of topoisomerase IIα: the expressed amount of topoisomerase IIα does not drop
Topoisomerase IIα; [3]
  expressed amount of topoisomerase IIα: inhibited similarly decrease in expression of topoisomerase IIα

## CC(C)C[C@@H](C=O)NC(=O)[C@H](CC(C)C)NC(=O)OCc1ccccc1 [ZLLal, carbobenzoxy-L-Leucyl-L-Leucinal]
[1]; glucose starvation condition
  effect of each inhibiting agent on etoposide sensitivity: seldom change sensitivity to etoposide
Topoisomerase IIα; [2]
  expressed amount of topoisomerase IIα: the expressed amount of topoisomerase IIα very dropped

## N.N.[Cl][Pt][Cl] [cisplatin]
[1]; under the stress environment (glucose starvation), cisplatin 4 hours, FIG. 18
  sensitivity of cancer cells to cisplatin: high sensitivity

## CC(=O)NCCSC(=O)[C@]1([C@@H](O)C(C)C)NC(=O)[C@H](C)[C@@H]1O [decarboxy lactacystin]
[1]; decarboxy lactacystin 5 µM 13 hours, etoposide 4 hours, ordinary and glucose starvation condition, FIG. 19 top
  change of cell-killing effect of etoposide: enhances the cell-killing effect of etoposide
[1]; ordinary condition, decarboxy lactacystin 5 µM 13 hours, SN38 4 hours, FIG. 20
  change of cell-killing effect of SN38: enhances the cell-killing effect of SN38
Topoisomerase IIα; glucose starvation condition 13 hours, decarboxy lactacystin 0.5, 1, 2.5, and 5 µM, FIG. 19 bottom
  amount of expression of topoisomerase IIα: inhibits lowering of expression of topoisomerase IIα by glucose starvation
